Results published in the NIST ThermoML archive (doi:10.1016/j.jct.2014.05.021).
± gives the expanded uncertainty stated by the source.

Test: excess molar enthalpy (molar enthalpy of mixing); xn = mol fraction of the nth substance listed
Settings: 101 kPa, Liquid, Calvet calorimetry

[Ca] [calcium] + [Ag]
Settings	excess molar enthalpy [kcal/mol]
1131 K, x1 = 0.7564	-3.38 ± 0.478
1131 K, x1 = 0.8188	-2.59 ± 0.478
1131 K, x1 = 0.8703	-1.83 ± 0.478
1131 K, x1 = 0.8808	-1.66 ± 0.478
1131 K, x1 = 0.9156	-1.19 ± 0.478
1131 K, x1 = 0.9224	-1.1 ± 0.478
1131 K, x1 = 0.9626	-0.537 ± 0.478
1131 K, x1 = 0.9647	-0.496 ± 0.478
1254 K, x1 = 0.0642	-1.32 ± 0.478
1254 K, x1 = 0.0984	-1.7 ± 0.478
1254 K, x1 = 0.1103	-1.83 ± 0.478
1254 K, x1 = 0.1123	-2.28 ± 0.478
1254 K, x1 = 0.1203	-2.04 ± 0.478
1254 K, x1 = 0.1288	-2.6 ± 0.478
1254 K, x1 = 0.1327	-2.32 ± 0.478
1254 K, x1 = 0.1487	-2.66 ± 0.478
1254 K, x1 = 0.1699	-3.08 ± 0.478
1254 K, x1 = 0.1893	-3.43 ± 0.478
1254 K, x1 = 0.1897	-3.31 ± 0.478
1254 K, x1 = 0.2073	-3.25 ± 0.478
1254 K, x1 = 0.2145	-3.87 ± 0.478
1254 K, x1 = 0.2393	-3.77 ± 0.478
1254 K, x1 = 0.2405	-4.25 ± 0.478
1254 K, x1 = 0.249	-4.69 ± 0.478
1254 K, x1 = 0.2673	-4.17 ± 0.478
1254 K, x1 = 0.2711	-4.66 ± 0.478
1254 K, x1 = 0.2999	-4.55 ± 0.478
1254 K, x1 = 0.3115	-5.08 ± 0.478
1254 K, x1 = 0.3416	-4.95 ± 0.478
1254 K, x1 = 0.3685	-5.53 ± 0.478
1254 K, x1 = 0.3962	-5.28 ± 0.478
1254 K, x1 = 0.4438	-5.82 ± 0.478
1254 K, x1 = 0.4634	-5.88 ± 0.478
1254 K, x1 = 0.4708	-5.44 ± 0.478
1254 K, x1 = 0.5175	-5.79 ± 0.478
1254 K, x1 = 0.5477	-5.3 ± 0.478
1254 K, x1 = 0.5562	-5.62 ± 0.478
1254 K, x1 = 0.6306	-4.79 ± 0.478
1254 K, x1 = 0.6313	-5 ± 0.478
1254 K, x1 = 0.6768	-4.7 ± 0.478
1254 K, x1 = 0.7157	-4.28 ± 0.478
1254 K, x1 = 0.7353	-3.76 ± 0.478
1254 K, x1 = 0.8259	-2.59 ± 0.478
1254 K, x1 = 0.9396	-0.962 ± 0.478
